Measured values taken from patent US11857560B2, “Pharmaceutical compositions comprising substituted nucleotides and nucleosides for treating viral infections” (priority 2013, dated 2024).

Tests used:
[1] = Cytotoxicity panel, BxPC3; settings: human, BxPC3 cells
[2] = Cytotoxicity panel, Huh-7; settings: human, Huh-7 cells, Cytotoxicity (CC50 uM) Huh-7, Huh-7
Cytotoxicity panel, H9c = assay type: cell-based; settings: rat, H9c cells
[3] = Cytotoxicity panel, HepG2; settings: human, HepG2 cells
Cytotoxicity panel, CEM = settings: human, CEM cells, Cytotoxicity (CC50 uM) CEM
Cytotoxicity panel, A204 = assay type: cell-based; settings: human, A204 cells
[4] = Cellular toxicity in parallel with HCV replicon assay (XTT); settings: human
Dengue Type 2 [5] = experiment: Anti-Dengue virus cytoprotection assay, Vero cells; settings: read-out: Dengue Type 2 Vero Cells (EC50 uM)
Dengue Type 2 [6] = experiment: Anti-Dengue virus cytoprotection assay, Huh-7 cells; settings: Huh-7, read-out: Dengue Type 2 Huh-7 Cells (EC50 uM)
[7] = Toxicity in Vero cells (Dengue assay); settings: African green monkey
[8] = Toxicity in Huh-7 cells (Dengue assay); settings: human, Huh-7 cells
CEM = experiment: Cytotoxicity panel, CEM; settings: read-out: Cytotoxicity (CC50 uM) CEM
[9] = Cytotoxicity in GT1b replicon cells; assay type: cell-based

| Structure (SMILES) | CC50 [2] | CC50 [3] | CC50 (Cytotoxicity panel, CEM) | CC50 at 72 h [4] | further results |
| --- | --- | --- | --- | --- | --- |
| CC(C)OC(=O)[C@H](C)NP(=O)(OC[C@H]1O[C@@H](n2ccc(=O)[nH]c2=O)[C@](C)(O)C1O)Oc1ccccc1 (some centres unmarked) [ENUC-01982-1] | 65 µM | 159 µM | 150 µM | – | CC50 [1]: 157 µM; CC50 (Cytotoxicity panel, H9c): 31 µM; CC50 (Cytotoxicity panel, A204): 124 µM |
| C[C@@]1(O)C(O)[C@@H](COP(=O)(O)O)O[C@H]1n1ccc(=O)[nH]c1=S (some centres unmarked) [ENUC-01984-1] | > 400 µM | > 400 µM | > 400 µM | > 100 µM | – |
| C[C@H](NP(=O)(O)OC[C@H]1O[C@@H](n2ccc(=O)[nH]c2=S)[C@](C)(O)C1O)C(=O)O (some centres unmarked) [ENUC-01997-1] | > 400 µM | > 400 µM | > 400 µM | > 100 µM | – |
| CC(C)OC(=O)[C@H](C)N[P@@](=O)(OC[C@H]1O[C@@H](n2ccc(=O)[nH]c2=S)[C@](C)(O)C1O)Oc1ccccc1 (some centres unmarked) [ENUC-02024-1] | > 400 µM | > 400 µM | > 400 µM | – | – |
| CC(C)OC(=O)[C@H](C)N[P@@](=O)(OC[C@H]1O[C@@H](n2ccc(=O)[nH]c2=S)[C@](C)(O)C1O)Oc1ccccc1 (some centres unmarked) [ENUC-02024] | – | – | – | – | EC50 (Dengue Type 2 [5]): 56.2 µM; EC50 (Dengue Type 2 [6]): 24.9 µM; CC50 [7]: > 100 µM; CC50 [8]: > 100 µM |
| CC(C)OC(=O)[C@H](C)N[P@](=O)(OC[C@H]1O[C@@H](n2ccc(=O)[nH]c2=O)[C@](C)(F)C1O)Oc1ccccc1 (some centres unmarked) [ENUC-02025-1] | 279 µM | 365 µM | > 400 µM | – | – |
| CC(C)OC(=O)[C@H](C)N[P@@](=O)(OC[C@H]1O[C@@H](n2ccc(=O)[nH]c2=O)[C@](C)(F)C1O)Oc1ccccc1 (some centres unmarked) [ENUC-02026-1] | > 400 µM | > 400 µM | > 400 µM | – | – |
| CC(C)OC(=O)[C@H](C)NP(=O)(OC[C@H]1O[C@@H](n2ccc(=O)[nH]c2=[Se])[C@](C)(O)C1O)Oc1ccccc1 (some centres unmarked) [ENUC-02058-1] | > 100 µM | > 400 µM | – | – | – |
| C#C[C@]1(COP(=O)(N[C@@H](C)C(=O)OC(C)C)Oc2ccccc2)O[C@@H](n2ccc(=O)[nH]c2=S)[C@@H](O)C1O (some centres unmarked) [ENUC-02069-1] | > 400 µM | > 400 µM | > 400 µM | – | EC50 (Dengue Type 2 [6]): > 100 µM; CC50 [8]: > 100 µM |
| CC(C)OC(=O)[C@H](C)NP(=O)(OC[C@H]1O[C@@H](n2ccc(=S)[nH]c2=O)[C@@H](O)C1O)Oc1ccccc1 (some centres unmarked) [ENUC-02071-1] | 381 µM | – | 241 µM | > 100 µM | CC50 (CEM): > 400 µM |
| CC(C)OC(=O)[C@H](C)NP(=O)(OC[C@H]1O[C@@H](n2ccc(=O)[nH]c2=S)[C@@H](O)C1O)Oc1ccccc1 (some centres unmarked) [ENUC-02071-2] | – | – | – | > 100 µM | – |
| CC(C)OC(=O)[C@H](C)NP(=O)(OC[C@H]1O[C@@H](n2ccc(=O)[nH]c2=S)[C@@H](O)C1O)Oc1ccccc1 (some centres unmarked) [ENUC-02072-1] | > 400 µM | > 400 µM | > 400 µM | – | – |
| CC(C)OC(=O)[C@H](C)NP(=O)(OC[C@H]1O[C@@H](n2ccc(=O)[nH]c2=S)[C@@H](C)C1O)Oc1ccccc1 (some centres unmarked) [ENUC-02078-1] | > 400 µM | > 400 µM | 259 µM | – | EC50 (Dengue Type 2 [6]): 6.07 µM; CC50 [8]: > 100 µM |
| CC(C)OC(=O)[C@H](C)NP(=O)(OC[C@@]1(N=[N+]=[N-])O[C@@H](n2ccc(=S)[nH]c2=O)[C@@H](O)C1O)Oc1ccccc1 (some centres unmarked) [ENUC-02083-1] | – | > 400 µM | 229 µM | > 100 µM | EC50 (Dengue Type 2 [6]): 4.82 µM; CC50 [8]: > 100 µM |
| CC(C)OC(=O)[C@H](C)N[P@](=O)(OC[C@H]1O[C@@H](n2ccc(=O)[nH]c2=O)[C@](C)(F)C1O)Oc1ccccc1 (some centres unmarked) [GS-7977, reference compound] | – | – | – | – | CC50 [9]: > 2 µM |
